According to patent US10080748B2, “Use of flap inhibitors to reduce neuroinflammation mediated injury in the central nervous system” (Bioscience Pharma Partners, LLC, priority 2014, dated 2018):
Where a name gives a salt, the structure may show the parent alone. Read-outs that look alike come from different tables or passages of the source.

What was measured:
[1] = system: Primary neurons cultured from newborn rats; test: Apoptosis of primary neurons in vitro
Description: Primary neurons cultured from newborn rats were incubated in the presence of increasing concentrations of LTC4 or LTD4 for 16 hours.

[2] = cited from earlier work
[3] = cited from earlier work; remark: listed apart in the source
human whole blood = test: Human whole blood bioassay of LTB4, 5-HETE and AA production; assay type: cell-based
From the text: The results are for the effects of these two FLAP inhibitors on LTB4 production and 5-HETE production. It is known that indole-acetic acid FLAP inhibitors like MK-886, MK-591 display high plasma protein binding. Thus, the potencies of these FLAP inhibitors for blocking leukotrienes in vivo are about 100 fold higher than the affinity of the inhibitors for FLAP binding. The inventors developed a bioassay that closely predicts the in vivo potency of FLAP inhibitors using human whole blood. Briefly, whole blood is incubated with a calcium ionophore like […] or zymosan in the absence or presence of increasing concentrations of a FLAP inhibitor. After incubation at 37° C. for 30 minutes, the samples are centrifuged and the plasma supernatant is subjected to reverse phase liquid chromatography coupled to tandem mass spectrometry to quantify levels of LTB4, 5-HETE, and AA production. Drug IC50 values are determined by non-linear regression analysis (GraphPad Prism).). […] As FLAP inhibitors are poorly water soluble drugs, the inventors have shown that such hydrophobic drugs can be formulated in a carrier comprising one or more vegetable oils, such as olive oil, and phosphatidylserine that are found on the Generally Accepted as Safe (GRAS) list and that such drugs can then be rapidly delivered and targeted to the brain and upper spinal cord. Hanson L R, et al, Drug Delivery 19(3):149-54, 2012.

[4] = Brain and plasma levels 30 minutes after intranasal administration; assay type: in vivo, rat; conditions: intranasal 60 micrograms/32 ul lipid carrier, 30 minutes post-dosing
Description: For intranasal delivery and subsequent tissue collection, rats were anesthetized with 3.5% isoflurane and placed in a supine position on top of a heating pad. The quinoline-indole FLAP inhibitor MK-591, 60 micrograms (μg) formulated with a lipid carrier was administered using a P20 pipette. Specifically, 4 μl drops were formed at the pipette tip and lowered to alternating nostrils every two minutes until a total of eight 4 μl drops were administered. At 30 minutes after the start of intranasal delivery, blood was collected from the heart, and rats were transcardially perfused with 60 ml ice-cold 0.9% NaCl followed by 360 ml 4% paraformaldehyde at 15 ml/minute. Brain tissues were dissected into anatomical regions on ice, weighed, snap-frozen in liquid N2, and stored at −70° C. until analysis. The levels of MK-591 in tissues and plasma were measured by tandem mass spectroscopy.
The MK-591 was formulated in a lipid carrier solution as described above. […] The rats were briefly anesthetized with 3.5% isoflurane and intranasal MK-591 (60 micrograms/32 ul lipid carrier) was administered in eight 4 ul aliquots to the nasal mucosa alternating between each nostril. The amount of drug was determined with the goal of reaching 200 nM concentration of drug which corresponds to 100× the Kd value for binding to FLAP. At 30 minutes post-dosing, blood was collected from anesthetized animals using a heparanized needle and plasma was separated from blood by centrifugation. The animals were then perfused with saline, while still under anesthesia, to remove drug in the blood of the cerebrovasculature. After perfusion the animals were euthanized and brain regions were rapidly removed. Both plasma and brain tissue samples were frozen in liquid nitrogen followed by storage at −80° C. Drug levels in the peripheral plasma and parenchymal brain tissues were assessed using a validated tandem mass spectroscopy platform. Values are expressed in ng of MK-591/mg tissue. […] The concentration of MK-591 in the cortex was 200 nM, the target concentration.

[5] = system: mice subjected to CHI (mTBI model); test: GFAP and Iba-1 immunohistochemical staining, mouse closed head injury (CHI) model; assay type: in vivo; conditions: 5 mg/kg IP once daily for 6 days after CHI; 7 dpi
[6] = Brain and plasma levels 30 minutes after intraperitoneal administration; assay type: in vivo, rat; conditions: intraperitoneal 10 mg/kg in 20% DMSO/saline; 30 minutes post-dosing
Description: The rats were injected intraperitoneally with MK-591 (10 mg/kg in 20% DMSO/saline solution). At 30 minutes post-dosing, blood was collected from anesthetized animals using a heparanized needle and plasma was separated from blood by centrifugation. The animals were then perfused with saline, while still under anesthesia, to remove drug in the blood of the cerebrovasculature. After perfusion the animals were euthanized and brain hemispheres were rapidly removed. Both plasma and brain tissue samples were frozen in liquid nitrogen followed by storage at −80° C. Drug levels in the peripheral plasma and brain were assessed using a validated tandem RP-LC/MS/MS platform. […] Using the conversion of 1 ml=1 gm. The total volume of blood was 2 ml (or […]). The total weight of the brain hemisphere (minus cerebellum) is […]. Values are expressed in ng of MK-591/mg tissue.

[7] = system: leukotriene LTC4 production; test: LTC4 levels in brain after rat fluid percussion injury (RP LC-MS/MS); assay type: in vivo; conditions: neutrophil depletion, 0.5 mg/kg IV four days prior to TBI; 1 hour after FPI
Description: Craniotomy and lateral fluid percussion injury (FPI) were performed using a previously validated and published procedure. Farias S, et al. J. Neurotraum, 26, 1977-1986, 2009; Frey L. C. et al. J. Neurosci. Methods 177, 267-272, 2009. Throughout the specification animals subjected to this protocol are referred to as having a TBI since this treatment protocol is a TBI model. Briefly, rats were anesthetized with 3-5% isoflurane, isosol, VEDCO Inc., St. Joseph, Mo., via nose cone and mounted in a stereotaxic head frame. A 3 millimeter (mm) craniotomy was created and centered at 3 mm caudal to bregma and 3.5 mm left of the sagittal suture, keeping the exposed dura intact. One steel support screw was embedded in the skull on the contralateral side. A Luer-Lock hub with an inside diameter of 3.5 mm was centered over the craniotomy and bonded to the skull with cyanoacrylate adhesive and capped. Dental acrylic, Snap, Parka, Inc., Edgewood, N.J., was poured around the huh and screw. After the acrylic hardened antibiotic ointment was applied around the cap and the animals were returned to their cages. The next day, approximately 15-20 hours later, animals were anesthetized with isoflurane in an induction chamber, immediately connected to the FPI apparatus, and received a 20 millisecond (ms) pulse of pressurized sterile saline at 2.7 atmospheres (atm) of pressure to simulate a moderate severity impact on the intact dural surface through the craniotomy before awakening from anesthesia. […] All animals received a subcutaneous injection of the analgesic, buprenorphine, 0.05 milligram/kilogram (mg/kg) Buprenex, prior to craniotomy, and subsequent injections every 12 hours for two days. Moistened food pellets were provided after injury, and all animals were monitored daily for well-being and weight changes.
Two groups of four rats each were subjected to FPI as described above. Four days prior to the FPI, each animal was briefly anesthetized for less than 5 minutes with 3-3.5% isoflurane and administered either NaCl 0.9%, 2 ml/kg IV (vehicle) or vinblastine sulfate 0.5 mg/kg IV in an identical volume. Neutrophil depletion was verified by complete cell blood counts (CBC) in vinblastine treated animals 4 days after administration. Both groups were euthanized by decapitation and the brain lipids extracted 1 hour after FPI. The amounts of LTC4 formed, measured by RP LC-MS/MS and normalized per milligram of protein, were compared between groups using one-way analysis of variance and the Student-Newman-Keuls test for multiple comparisons.
The indole FLAP inhibitor MK-886 was prepared at a dose of 2.5 milligram/milliliter (mg/ml), dissolved in dimethyl sulfoxide (DMSO) and then diluted with 0.9% saline to 10% DMSO. The rats were briefly anesthetized with 3-3.5% isoflurane and either […] at a dose of 6 mg/kg or vehicle was administered intravenously (IV) by tail vein injection. All animals were allowed to wake before undergoing additional procedures.
Cortical and hippocampal regions from ipsilateral and contralateral hemispheres were collected in 4 ml of 80% methanol, homogenized with a Dounee homogenizer, and internal standards were added to the homogenates. Protein content was measured using bicinchoninic acid assay (BCA) for protein to normalize lipid levels to the amount of tissue. Samples were centrifuged and the supernatant was collected. Samples were diluted to a final methanol concentration of lower than 15% and then the lipids were extracted using a solid phase extraction cartridge, Strata C18-E, 100 mg/1 ml, Phenomenex, Torrence Calif. The eluate, 1 ml of methanol, was dried down and reconstituted in 70 microliters (μl) of High Performance Liquid Chromotography (HPLC) solvent A, which is 8.3 mM acetic acid buffered to pH 5.7 with NH4OH, plus […] of solvent B, which is acetonitrile/methanol, 65/35, v/v. […]

For `CCCCC/C=C\C\C=C/C=C/C=C/[C@@H](SC[C@H](NC(=O)CC[C@H](N)C(=O)O)C(=O)NCC(=O)O)[C@@H](O)CCCC(=O)O` [LTC4, leukotriene C4], the neuronal apoptosis ([1]; increasing concentrations, 16 hours, dose-dependent) was “induce neuronal apoptosis”.
In the case of `CCCCC/C=C\C\C=C/C=C/C=C/[C@@H](SC[C@H](N)C(=O)NCC(=O)O)[C@@H](O)CCCC(=O)O` [LTD4, leukotriene D4], the neuronal apoptosis [1] is reported as “induce neuronal apoptosis”.
In the case of `CC(C)(C)Sc1c(CC(C)(C)C(=O)O)n(Cc2ccc(Cl)cc2)c2ccc(OCc3ccc4ccccc4n3)cc12` [MK-591], the “t1/2 compared with MK-886” value [2] is given as “longer”, the plasma protein binding [3] is given as “high” and the “potency compared with MK-886” value (human whole blood) is given as “more potent”. For the same compound, the AA production (human whole blood; human whole blood, data not shown) was “neither of the FLAP inhibitors effected AA production”, the “brain localization (rank of regions by level)” value [4] was “highest level of MK-591 was detected in the olfactory bulbs, followed by the hippocampus, and cortex” and the “levels of drug in plasma versus brain” value [4] was “lower than the amount of drug reaching the brain”. The concentration at 30 min ([4]; rat, brain cortex, other: intranasal) was 200 nM, the “GFAP staining in cerebral cortex, external capsule and dentate gyrus” value [5] was “significantly blocked the increase” and the “Iba-1 staining in cerebral cortex, external capsule and dentate gyrus” value [5] was “significantly blocked the increase”. For the same compound, the “distribution between plasma and brain tissue” value [6] was “most of the drug was in the plasma with much lower levels found in brain tissue”.
For `CC[C@]1(O)C[C@@H]2CN(CCc3c([nH]c4ccccc34)[C@@](C(=O)OC)(c3cc4c(cc3OC)N(C)[C@H]3[C@@](O)(C(=O)OC)[C@H](OC(C)=O)[C@]5(CC)C=CCN6CC[C@]43[C@@H]65)C2)C1` [vinblastine, vinblastine sulfate], the “leukotriene production in the ipsilateral hemisphere” value [7] was “markedly reduced”.
